This assay concerns cultured human mast cells (CHMC). Description: CHMC low cell density IgE activation: tryptase assay. Type of assay: cell-based. As to conditions: IgE activation. In a few lines:
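Fluorogenic readout of tryptase released into the supernatant (30 min substrate incubation, room temperature) measures degranulation. Cells were plated at low density (1000–1500/well, varied by donor) and triggered with anti-IgE for 30 min at 37 °C.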

[1] abbreviates: low cell density, 8 pt, read-out: LD Tryptase, CHMC, IgE, 8 pt.
[2] abbreviates: Homo sapiens, Mast cell, low cell density, 3 pt, read-out: LD Tryptase, CHMC, IgE, 3 pt.
The mark [3] stands for this setting: Homo sapiens, Mast cell, low cell density, 8 pt, read-out: LD Tryptase, CHMC, IgE, 8 pt.
The mark [4] stands for this setting: low cell density, 3 pt, read-out: LD Tryptase, CHMC, IgE, 3 pt.
[5] abbreviates: low cell density CHMC, tryptase release, 3 point, read-out: LD Tryptase, CHMC, IgE, 3 pt.
The mark [6] stands for this setting: low cell density CHMC, tryptase release, 8 point, read-out: LD Tryptase, CHMC, IgE, 8 pt.

Where a name gives a salt, the structure may show the parent alone. Read-outs that look alike come from different tables or passages of the source.

Take `CNC(=O)COc1cccc(Nc2ncc(F)c(Nc3ccc(C(=O)NC)c(Cl)c3)n2)c1` [Compound 483, N4-[3-Chloro-4-(N-methylamino)carbonylphenyl]-5-fluoro-N2-[3-(N-methylamino)carbonylmethyleneoxyphenyl]-2,4-pyrimidinediamine]: under setting [1], the IC50 was less than 10 µM.
`CNC(=O)c1ccc(Nc2nc(Nc3ccc(Cl)c(C(=O)NC)c3)ncc2F)cc1Cl` [Compound 484]: the IC50 under setting [2] was more than 10 µM.
Take `CNC(=O)c1ccc(Nc2nc(Nc3ccc4cc[nH]c4c3)ncc2F)cc1Cl` [Compound 485, N4-[3-Chloro-4-(N-methylamino)carbonylphenyl]-5-fluoro-N2-(indol-6-yl)-2,4-pyrimidinediamine]: the IC50 under setting [2] was less than 10 µM and the IC50 under setting [3] was less than 10 µM.
Regarding `Oc1cccc(Nc2nc(Nc3cccc(-c4ncco4)c3)ncc2F)c1` [Compound 511, 5-Fluoro-N4-(3-hydroxyphenyl)-N2-[3-(oxazol-2-yl)phenyl]-2,4-pyrimidinediamine], under setting [2], the IC50 was less than 10 µM.
On the same count and under the same terms, the result for `Oc1cccc(Nc2nc(Nc3cccc(-c4ncon4)c3)ncc2F)c1` [Compound 522] reads less than 10 µM.
For the molecule `COc1cc(N(C)c2nc(Cl)ncc2F)cc(OC)c1OC` [Compound 523], under setting [2], the IC50 was more than 10 µM.
For `Cc1cc(Nc2nc(Nc3cccc(-c4ncco4)c3)ncc2F)no1` [Compound 524, 5-Fluoro-N4-(5-methylisoxazol-3-yl)-N2-[3-(oxazol-2-yl)phenyl]-2,4-pyrimidinediamine], the IC50 under setting [2] was less than 10 µM.
As for `Cc1onc(-c2ccccc2)c1Nc1nc(Nc2cccc(-c3ncco3)c2)ncc1F` [Compound 525], the IC50 under setting [2] was less than 10 µM.
`Cn1nc(-c2ccccc2)cc1Nc1nc(Nc2cccc(-c3ncco3)c2)ncc1F` [Compound 526]: under setting [2], the IC50 was less than 10 µM.
For `COC(=O)c1cc(Nc2ncc(F)c(Nc3cc(C(=O)OC)cc(-c4ncco4)c3)n2)cc(-c2ncco2)c1` [Compound 527], under setting [2], the IC50 is less than 10 µM.
Still for that read-out and setting: the result for `Cc1noc(C)c1Nc1ncc(F)c(Nc2c(C)noc2C)n1` [Compound 528] reads more than 10 µM; that for `Fc1cnc(Nc2cc(-c3ncco3)cc(C(F)(F)F)c2)nc1Nc1cc(-c2ncco2)cc(C(F)(F)F)c1` [Compound 529], less than 10 µM.
`CC(C)(C)c1nnc(-c2cccc(Nc3ncc(F)c(Nc4ccc5c(c4)OCCO5)n3)c2)o1` [Compound 531, N2-[ (2-tert-Butyl-1,3,4-oxadiazol-5-yl)phenyl]-N4-(3,4-ethylenedioxyphenyl)-5-fluoro-2,4-pyrimidinediamine]: the IC50 under setting [4] was less than 10 µM.
Turning to `CC(C)(C)c1nnc(-c2cccc(Nc3ncc(F)c(Nc4cccc(O)c4)n3)c2)o1` [Compound 532, N2-[ (2-tert-Butyl-1,3,4-oxadiazol-5-yl)phenyl]-5-fluoro-N4-(3-hydroxyphenyl)-2,4-pyrimidinediamine], the IC50 under setting [4] was less than 10 µM.
On the same count and under the same terms, the value for `CN(c1ccc2c(c1)OCCO2)c1nc(NN)ncc1F` [Compound 533, N4-(3,4-Ethylenedioxyphenyl)-5-fluoro-N4-methyl-2-hydrazine-4-pyrimidineamine] was more than 10 µM.
On to `Cc1noc(C)c1Nc1nc(Nc2cccc(-c3ncco3)c2)ncc1F` [Compound 534, N4-(3,5-Dimethylisoxazol-4-yl)-5-fluoro-N2-[3-(oxazol-2-yl)phenyl]-2,4-pyrimidinediamine], for which the IC50 under setting [2] is less than 10 µM.
The same measure, in the same setting: the value for `COC(=O)c1cc(Nc2ncc(F)c(Nc3c(C)noc3C)n2)cc(-c2ncco2)c1` [Compound 535] was less than 10 µM.
On to `CC1(C)Oc2ccc(Nc3nc(Nc4ccc5nc(C(F)(F)F)[nH]c5c4)ncc3F)cc2NC1=O` [Compound 539, N4-(2,2-Dimethyl-3-oxo-4H-benz[1,4]oxazin-6-yl)-5-fluoro-N2-(2-trifluoromethyl-3H-benzimidazol-5-yl)-2,4-pyrimidinediamine p-Toluenesulfonic Acid Salt], for which the IC50 under setting [3] was less than 10 µM.
Consider `COc1cc(Nc2ncc(F)c(Nc3ccc4c(c3)NC(=O)C(C)(C)O4)n2)cc(OC)c1OC` [Compound 543], for which the IC50 under setting [2] was less than 10 µM and the IC50 under setting [3] is less than 10 µM.
Take `COc1cc(Nc2ncc(F)c(Nc3ccc(OC)c(N)n3)n2)cc(OC)c1` [Compound 544]: the IC50 under setting [2] was less than 10 µM.
Consider `COc1ccc(Nc2nc(Nc3cc(OC)c(OC)c(OC)c3)ncc2F)nc1N` [Compound 545], for which the IC50 under setting [2] was less than 10 µM.
Take `COC(=O)c1cc2cc(Nc3ncc(F)c(Nc4ccc(OC)c(N)n4)n3)ccc2o1` [Compound 546]: the IC50 under setting [2] was less than 10 µM.
In the case of `CNC(=O)COc1cccc(Nc2ncc(F)c(Nc3ccc(OC)c(N)n3)n2)c1` [Compound 547, N4-(2-Amino-3-methoxypyrid-6-yl)-5-fluoro-N2[3-(N-methylaminocarbonylmethyleneoxy)phenyl]-2,4-pyrimidinediamine], the IC50 under setting [4] is less than 10 µM.
Turning to `COc1c(Cl)cc(Nc2nc(Nc3cc(Cl)c(O)c(Cl)c3)ncc2F)cc1Cl` [Compound 548], the IC50 is less than 10 µM under setting [2] and less than 10 µM under setting [3].
Turning to `COc1cc(Nc2ncc(F)c(Nc3cc(C)cc(C)c3)n2)cc(OC)c1OC` [Compound 553], the IC50 under setting [3] was less than 10 µM.
Regarding `Cc1cc(C)cc(Nc2nc(Nc3cc(C)c(O)c(Cl)c3)ncc2F)c1` [Compound 554], under setting [3], the IC50 was less than 10 µM.
As for `Cc1cc(C)cc(Nc2nc(Nc3cc(Cl)cc(Cl)c3)ncc2F)c1` [Compound 556], the IC50 was less than 10 µM under setting [2] and less than 10 µM under setting [3].
For `CNC(=O)c1cc2cccc(Nc3ncc(F)c(Nc4cc(C)cc(C)c4)n3)c2[nH]1` [Compound 557, N4-(3,5-Dimethylphenyl)-5-fluoro-N2-[2-(N-methylamino)carbonylindol-7-yl]-2,4-pyrimidinediamine], the IC50 under setting [3] is more than 10 µM.
In the case of `CNC(=O)c1cc2cccc(Nc3ncc(F)c(Nc4cc(OC)cc(C(F)(F)F)c4)n3)c2[nH]1` [Compound 558, 5-Fluoro-N4-(3-methoxy-5-trifluoromethylphenyl)-N2-[2-(N-methylamino)carbonylindol-7-yl]-2,4-pyrimidinediamine], under setting [2], the IC50 is less than 10 µM.
With `Cc1cc(C)cc(Nc2nc(Nc3cc(Cl)c(O)c(Cl)c3)ncc2F)c1` [Compound 559], the IC50 is, setting by setting: under setting [2], less than 10 µM; under setting [3], less than 10 µM.
As to `Cc1cc(C)cc(Nc2nc(Nc3cc(C)c(Cl)c(C)c3)ncc2F)c1` [Compound 560], the IC50 under setting [2] was more than 10 µM.
`Oc1c(Cl)cc(Nc2ncc(F)c(Nc3ccc4c(c3)OC(F)(F)O4)n2)cc1Cl` [Compound 564]: the IC50 under setting [1] is less than 10 µM.
As to `Fc1cnc(Nc2cc(Cl)cc(Cl)c2)nc1Nc1ccc2c(c1)OC(F)(F)O2` [Compound 565], under setting [5], the IC50 is less than 10 µM.
Take `Cc1cc(Nc2ncc(F)c(Nc3ccc4c(c3)OC(F)(F)O4)n2)cc(C)c1Cl` [Compound 566]: under setting [5], the IC50 was more than 10 µM.
As for `COc1cc(Nc2ncc(F)c(Nc3ccc4c(c3)OC(F)(F)O4)n2)cc(C(F)(F)F)c1` [Compound 568], the IC50 under setting [5] was more than 10 µM.
For the molecule `Cc1cc(Nc2ncc(F)c(Nc3ccc4c(c3)OC(F)(F)O4)n2)cc(C(F)(F)F)c1` [Compound 569], the IC50 under setting [5] was less than 10 µM.
Turning to `CNC(=O)COc1c(C)cc(Nc2ncc(F)c(Nc3ccc(OC)c(Cl)c3)n2)cc1C` [Compound 571, N4-(3-Chloro-4-methoxyphenyl)-N2-[3,5-dimethyl-4-(N-methylamino)carbonylmethyleneoxyphenyl]-5-fluoro-2,4-pyrimidinediamine], the IC50 reads like this: under setting [5], less than 10 µM; under setting [6], less than 10 µM.
In the case of `CNC(=O)COc1c(C)cc(Nc2ncc(F)c(Nc3ccc4c(c3)OCCO4)n2)cc1C` [Compound 572, N2-[3,5-dimethyl-4-(N-methylamino)carbonylmethyleneoxyphenyl]-N4-(3,4-ethylenedioxyphenyl)-5-fluoro-2,4-pyrimidinediamine], the IC50 reads like this: under setting [5], less than 10 µM; under setting [6], less than 10 µM.
As to `CNC(=O)COc1c(C)cc(Nc2ncc(F)c(Nc3cc(OC)cc(OC)c3)n2)cc1C` [Compound 573, N4-(3,5-Dimethoxyphenyl)-N2-[3,5-dimethyl-4-(N-methylamino)carbonylmethyleneoxyphenyl]-5-fluoro-2,4-pyrimidinediamine], the IC50 reads like this: under setting [5], less than 10 µM; under setting [6], less than 10 µM.
For the molecule `CNC(=O)COc1c(C)cc(Nc2ncc(F)c(Nc3ccc4c(c3)NC(=O)C(C)(C)O4)n2)cc1C` [Compound 574, N2-[3,5-dimethyl-4-(N-methylamino)carbonylmethyleneoxyphenyl]-N4-(2,2-dimethyl-3-oxo-4H-benz[1,4]oxazin-6-yl)-5-fluoro-2,4-pyrimidinediamine], the IC50 is, setting by setting: under setting [5], less than 10 µM; under setting [6], less than 10 µM.
With `CNC(=O)COc1c(C)cc(Nc2ncc(F)c(Nc3ccc4c(c3)OCO4)n2)cc1C` [Compound 575, N2-[3,5-dimethyl-4-(N-methylamino)carbonylmethyleneoxyphenyl]-5-fluoro-N4-(3,4-methylenedioxyphenyl)-2,4-pyrimidinediamine], the IC50 by setting is: under setting [5], less than 10 µM; under setting [6], less than 10 µM.
On to `CNC(=O)Cn1ccc2cc(Nc3ncc(F)c(Nc4ccc(OCCO)nc4)n3)ccc21` [Compound 650, 5-Fluoro-N4-[2-(2-hydroxyethyleneoxy)pyrid-5-yl]-N2-[1-(N-methylamino)carbonylmethyleneindol-5-yl]-2,4-pyrimidinediamine], for which the IC50 under setting [6] was less than 10 µM.
On the same count and under the same terms, the result for `CNC(=O)Cn1ccc2cc(Nc3ncc(F)c(Nc4ccc(OC(F)(F)F)c(Cl)c4)n3)ccc21` [Compound 651, N4-(3-Chloro-4-trifluoromethoxyphenyl)-5-fluoro-N2-[1-(N-methylamino)carbonylmethyleneindol-5-yl]-2,4-pyrimidinediamine] reads less than 10 µM.

Source of the values: patent US20220073536A1 (Rigel Pharmaceuticals, Inc., priority 2003, published 2022).
